Experimental data taken from US11472781B2, “2-aminoaryl-5-aryloxazole analogs for the treatment of neurodegenerative diseases” (Southern Research Institute, priority 2018, dated 2022).
Like-named read-outs stand apart in the source and are kept apart here.

Experiments:
NF-κB = assay: High throughput assay for NF-κB reporter activity (luciferase) in stably transfected SH-SY5Y cells; format: cell-based, human; conditions: for EC50: 24 hr; for maximal fold induction: 24 h, read-out: Emax
Experimental: SH-SY5Y human neuroblastoma cell line was obtained from the American Tissue Culture collection (ATCC). A commercially available expression vector containing the NF-kB promoter enhancer region driving the firefly luciferase gene expression and a second plasmid containing the gene conferring resistance to blasticidin were used in a dual transfection approach to obtain a stable cell line. […] Luciferase activity was measured as a reporter of NF-kB activation using the Bright-Glo Luciferase assay kit (Cat. No. E2620, Promega, Madison, Wis.) according to the manufacturer's instructions. Cell viability was measured using the CellTiter-Glo Luminescent Cell Viability assay kit (Cat. No. G7572, Promega, Madison, Wis.) according to the manufacturer's instructions. Briefly, cells were equilibrated at room temperature for 30 min prior to the addition of Bright-Glo to the white opaque plates or CellTiter-Glo to the black clear bottom plates. A volume of assay buffer equal to the volume of cell media was added to each well and incubated for five min to allow complete cell lysis. All procedures were performed in the dark.

SOD2 [1] = assay: Quantitative RT-PCR for SOD2 mRNA in SH-SY5Y neuroblastoma cells; format: cell-based, human; conditions: 1 μM, 6 h
Experimental: Referring to FIG. 1A and FIG. 1B, SH-SY5Y neuroblastoma cells were treated with vehicle or compounds (1 μM) for 6 or 24 hours, and cells were collected for RNA isolation (Trizol method). Quantitative RT-PCR for Manganese superoxide dismutase (SOD2; FIG. 1A) or brain-derived neurotrophic factor (BDNF, exon 1; FIG. 1B) indicates short-term upregulation of SOD2 and BDNF and sustained upregulation of BDNF (n=3-4/group, one-way ANOVA followed by unpaired t-test; […]).
Referring to FIG. 6, treatment of SH-SY5Y neuroblastoma cells with compounds (1 μM, 6 h) induced SOD2 mRNA expression >2 fold, as detected by q-RT-PCR. N=4/group, mean+/−SEM, 2-way ANOVA, post-hoc t-test. *p<0.05).

In vivo PK (I.V./P.O.) = assay: In vivo PK (I.V./P.O.); design: species or system mice; conditions: I.V./P.O., 1 and 5 mg/kg, respectively; for half-life: male, CD1, mouse, plasma, read-out: plasma half-life (t1/2)
Experimental: Before the studies above were initiated, congenic SOD1 G93A mice were dosed with 50 mg/kg of compound no. 1 and compound no. 2 via I.P. injection to rule out any toxicity issues prior to initiating the efficacy study (FIG. 4A-C).
The experiments will involve the administration of compounds to 5-6 week old CD1 male mice. Mice are dosed by either a 1 mg/kg IV bolus or 5 mg/kg oral gavage. Blood samples are collected by cardiac puncture at 0, 0.25, 0.5, 1, 2, 4, 6, 8, 12, and 24 hrs. There will be three mice per time point. Plasma concentration over time will be determined by LC/MS from which the standard PK parameters of clearance, volume of distribution, t1/2 and % F can be derived using WinNoLin software (Pharsight Inc.). This will require a total of 60 mice per compound. Plasma will be analyzed by reverse phase chromatography with MS/MS detection operating in the positive ion mode using multiple reaction monitoring using an internal standard and Applied Biosystems Analyst 1.4 software. Peak time (when maximum plasma drug concentration occurs), peak drug level [approximate maximum concentrations of drug in plasma (Cmax)] and t1/2 for drug elimination will be estimated for each tested compound. Bioavailability (F) will be calculated from the ratio of AUCPO/AUCIV and expressed as a percentage. To determine levels in brain, six additional mice will be dosed with 1 mg/kg I.V. and sacrificed at 0.25 and 1 hr. Brain and spinal cord samples will be collected at these two time points, quick frozen in an ice box and kept at −75±15° C. All samples will be weighed and homogenized with phosphate buffered saline (PBS) by brain weight (g) to PBS volume (mL) ratio 1:3 before analysis. The actual concentration is the detected value multiplied by the dilution factor.

SOD2 [2] = assay: SOD2 protein expression and SOD activity in primary rat cortical cultures; format: cell-based
Description: N=3-6/group, mean+/−SEM, *p<0.05, **p<0.01, 2-way ANOVA, post-hoc t-test.

[3] = Plasma and brain levels after I.P. dosing of SOD1 G93A mice; format: in vivo; conditions: 50 mg/kg I.P., within 30 minutes
[4] = tested on: SOD1 G93A transgenic mouse; assay: Efficacy in the SOD1 G93A transgenic mouse model of ALS; format: in vivo; conditions: 25 mg/kg I.P. daily from day 96
Experimental: Briefly, Congenic SOD1-G93A mice were doced with up to 50 mg/kg of both compounds (IP) to evaluate any toxicity issues prior to initiating the efficacy study. Also, mice administered 20 mg of each compound had high plasma and brain levels at 30 minutes. Next, individually genotyped SOD1-G93A mice (Prize4life-Jackson Labs) were treated with each compound (25 mg/kg, IP) at disease onset (day 96). The treatment extended survival, reduced weight loss and improved the neurologic symptoms. […] The average weight within the groups before the treatment was similar.
While compounds which increase SOD2 expression and activity have potential utility in a number of neurodegenerative diseases involving ROS overproduction, it was decided to test these two compounds in a mouse model of ALS for a variety of reasons, including the evidence for oxidative stress in ALS (described above), the ability of these compounds to induce SOD2 in a motor neuron-like mouse cell line (NSC-34; FIG. 3B), and the availability of a mouse model with dysfunction in SOD1 (human SOD1 G93A transgenic mouse; Jackson Laboratory). The pilot experiment involved treating six wildtype and six SOD1 G93A transgenic males on the C57BL/6 background with 25 mg/kg compound no. 1 and compound no. 2 I.P. daily, beginning around disease onset (day 96; FIG. 4A and FIG. 4B). Mouse survival and behavioral phenotype were observed based on guidelines from “Working with ALS mice: JAX handbook,” using a 4-point severity score (FIG. 4C).
Referring to FIG. 4A and FIG. 4B, SOD1 G93A mice received daily IP injections of saline (control) or compounds (25 mg/kg) starting on day 96.
Referring. To FIG. 4C, progression from neurological score 1 was delayed only by compound no. 2 (2 day delay, +30%), progression to higher (worse) scores was delayed by both compounds. *P<0.05; **P<0.01, 2-way ANOVA.

SOD2 [5] = assay: Quantitative RT-PCR for SOD2 mRNA in NSC-34 neuroblastoma cells; format: cell-based, mouse; conditions: NSC-34, 1 μM, 24 h

SMILES	EC50 (NF-κB)	maximal fold induction (NF-κB; Homo sapiens)	also measured
COC(=O)c1cccc(-c2cnc(Nc3ccc(Cl)cc3)o2)c1 [Compound 85]	Inactive	5.77	–
O=C(O)c1cccc(-c2cnc(Nc3c(F)cc(F)cc3F)o2)c1 [Compound 48]	–	14.1	EC50 (NF-κB; Homo sapiens, read-out: EC50): > 10000 nM
O=C(O)c1ccccc1-c1cnc(Nc2ccccc2F)o1 [Compound 54]	Inactive	5.37	–
COC(=O)c1cccc(-c2cnc(Nc3c(F)cc(F)cc3F)o2)c1 [Compound 64]	–	12.3	EC50 (NF-κB; Homo sapiens, read-out: EC50): > 10000 nM
Nc1cccc(-c2cnc(Nc3ccccc3F)o2)c1 [Compound 97]	Inactive	0.55	–
Fc1ccc(Nc2ncc(-c3cccc(-c4nnn[nH]4)c3)o2)cc1 [Compound 93]	Inactive	2.59	–
Cc1cccnc1Nc1nc(-c2ccccn2)cs1 [Compound 2]	–	40	SOD2 mRNA expression (SOD2 [1]; q-RT-PCR): ~2 fold; SOD2 mRNA expression (SOD2 [1]; SH-SY5Y): induce SOD2; oral bioavailability (In vivo PK (I.V./P.O.)): lack of oral bioavailability; half-life (In vivo PK (I.V./P.O.)): < 5 min; EC50 (NF-κB; Homo sapiens, read-out: EC50): 210 nM; SOD2 protein expression (SOD2 [2]): induce SOD2; SOD activity (SOD2 [2]): increase; plasma and brain levels [3]: substantial plasma and brain levels; progression to higher (worse) neurological scores / score of 4 [4]: delayed; survival [4]: significantly prolonged; SOD2 mRNA expression (SOD2 [5]): induce SOD2
COC(=O)c1cccc(-c2cnc(Nc3ccc(C(F)(F)F)cc3)o2)c1 [Compound 87]	Inactive	5.29	–
CCCN(c1ccc(F)cc1)c1ncc(-c2cccc(C(=O)OC)c2)o1 [Compound 89]	Inactive	3	–
O=C(O)c1cccc(-c2cnc(Nc3ccc(Cl)cc3)o2)c1 [Compound 84]	–	11.3	EC50 (NF-κB; Homo sapiens, read-out: EC50): 750 nM
COC(=O)c1cccc(-c2cnc(Nc3ccc(OC)cc3)o2)c1 [Compound 90]	Inactive	2.47	–
NCc1cccc(-c2cnc(Nc3ccccc3F)o2)c1 [Compound 96]	Inactive	5.14	–
O=C(O)c1ccc(-c2cnc(Nc3ccc(F)cc3)o2)cc1 [Compound 51]	Inactive	4.22	–
COC(=O)c1ccc(-c2cnc(Nc3ccc(F)cc3)o2)cc1 [Compound 67]	Inactive	–	–
COC(=O)c1ccccc1-c1cnc(Nc2ccc(F)cc2)o1 [Compound 75]	Inactive	2.97	–
O=C(O)c1ccccc1-c1cnc(Nc2cc(F)ccc2F)o1 [Compound 55]	Inactive	4.46	–

SMILES	EC50 (NF-κB)	maximal fold induction (NF-κB; Homo sapiens)	also measured
Cc1noc(-c2cccc(-c3cnc(N(C)c4ccc(F)cc4)o3)c2)n1 [Compound 98]	Inactive	3.2	–
COC(=O)c1ccc(-c2cnc(Nc3c(F)cc(F)cc3F)o2)cc1 [Compound 72]	Inactive	3.97	–
Fc1ccccc1Nc1nc(-c2ccccn2)no1 [Compound 81, N-(2-fluorophenyl)-3-(pyridin-2-yl)-1,2,4-oxadiazol-5-amine]	–	14.4	EC50 (NF-κB; Homo sapiens, read-out: EC50): 2510 nM
O=C(O)c1ccc(-c2cnc(Nc3cccc(F)c3)o2)cc1 [Compound 50]	Inactive	6.15	–
COC(=O)c1ccc(-c2cnc(Nc3ccc(F)cc3F)o2)cc1 [Compound 68]	–	4.41	EC50 (NF-κB; Homo sapiens, read-out: EC50): > 10000 nM
COC(=O)c1ccccc1-c1cnc(Nc2c(F)cccc2F)o1 [Compound 78]	Inactive	4.36	–
COC(=O)c1ccc(-c2cnc(Nc3cccc(F)c3F)o2)cc1 [Compound 71]	Inactive	7.24	–
O=C(O)c1ccc(-c2cnc(Nc3c(F)cccc3F)o2)cc1 [Compound 53]	Inactive	–	–
COC(=O)c1cccc(-c2cnc(Nc3ccc(C#N)cc3)o2)c1 [Compound 88]	Inactive	3.49	–
COC(=O)c1cccc(-c2cnc(N(c3ccc(F)cc3)C(C)C)o2)c1 [Compound 86]	Inactive	2.2	–
COC(=O)c1ccccc1-c1cnc(Nc2ccccc2F)o1 [Compound 73]	Inactive	2.37	–
CC(C)N(c1ccc(F)cc1)c1ncc(-c2cccc(C(=O)O)c2)o1 [Compound 83]	Inactive	4.5	–
COC(=O)c1ccccc1-c1cnc(Nc2ccc(F)cc2F)o1 [Compound 76]	Inactive	4.45	–
COC(=O)c1ccccc1-c1cnc(Nc2cccc(F)c2)o1 [Compound 74]	Inactive	2.37	–
COC(=O)c1ccccc1-c1cnc(Nc2cc(F)ccc2F)o1 [Compound 77]	Inactive	2.29	–
O=C(/C=C\Nc1ccccc1Br)c1ccc2c(c1)OCO2 [Compound 1, (Z)-1-(Benzo[d][1,3]dioxol-5-yl)-3-((2-bromophenyl)amino)prop-2-en-1-one]	–	26	SOD2 mRNA expression (SOD2 [1]; q-RT-PCR): ~2 fold; SOD2 mRNA expression (SOD2 [1]; SH-SY5Y): induce SOD2; oral bioavailability (In vivo PK (I.V./P.O.)): lack of oral bioavailability; half-life (In vivo PK (I.V./P.O.)): < 5 min; EC50 (NF-κB; Homo sapiens, read-out: EC50): 500 nM; SOD2 protein expression (SOD2 [2]): induce SOD2; SOD activity (SOD2 [2]): increase; plasma and brain levels [3]: substantial plasma and brain levels; progression to higher (worse) neurological scores / score of 4 [4]: delayed; survival [4]: significantly prolonged; SOD2 mRNA expression (SOD2 [5]): induce SOD2
